# From patent publication US4267192A, “Method for treating inflammation” (priority 1980, dated 1981)
# Where two headings read alike, the source gives them in different places.
# Tests used:
# [1] = system: carrageenan-induced edema in the hind paw of normal and adrenalectomized rats; assay: carrageenan paw edema in normal and adrenalectomized rats; assay type: in vivo, rat
# Experimental: Vehicle alone is administered as a control. Sixty minutes after drug administration edema is induced by an injection of 0.1 ml. of a 1% carrageenan solution is saline into the subplantar tissue of the rat's right hind paw. Two minutes later, paw volume is measured volumetrically with a plethysmograph and again 3 hours later. The mean volume of swelling for the control group is calculated and compared to the test groups. Percent change in paw edema is calculated and analyzed statistically (unpaired, Student's t-test).
# Normal rats received the same doses as adrenalectomized rats.
# prostaglandin synthetase = target: T1, prostaglandin synthetase (Ovis aries, UniProt P05979); assay: in vitro prostaglandin synthetase activity assay (PGE2 formation from 14C-arachidonic acid); assay type: biochemical, sheep; set-up: microsomal fraction of sheep vesicles; from tissue; host or cells: sheep seminal vesicles, microsomal fraction (105,000×g precipitate); conditions: for cpm (× 1000), in vitro PGE2 biosynthesis: sheep seminal vesicle microsomes
# T1 sequence (P05979 25-600): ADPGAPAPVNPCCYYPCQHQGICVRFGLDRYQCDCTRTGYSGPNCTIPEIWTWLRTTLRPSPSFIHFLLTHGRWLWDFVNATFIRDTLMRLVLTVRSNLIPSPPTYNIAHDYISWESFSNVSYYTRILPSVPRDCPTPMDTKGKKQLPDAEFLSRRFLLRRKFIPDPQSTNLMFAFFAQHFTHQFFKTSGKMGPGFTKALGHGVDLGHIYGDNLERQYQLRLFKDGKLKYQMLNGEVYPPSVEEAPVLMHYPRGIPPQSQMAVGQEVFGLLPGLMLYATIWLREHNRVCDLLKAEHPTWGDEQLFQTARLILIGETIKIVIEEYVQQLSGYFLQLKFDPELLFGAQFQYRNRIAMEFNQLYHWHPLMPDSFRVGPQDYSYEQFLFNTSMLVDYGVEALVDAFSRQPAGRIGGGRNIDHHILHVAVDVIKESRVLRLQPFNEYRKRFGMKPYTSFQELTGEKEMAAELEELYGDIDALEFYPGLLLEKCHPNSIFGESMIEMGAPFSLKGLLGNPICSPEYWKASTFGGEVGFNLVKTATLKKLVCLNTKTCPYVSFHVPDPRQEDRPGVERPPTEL
# Experimental: Frozen sheep seminal vesicles are cleaned of fat and connective tissue and then minced. Ten grams of the minced tissue are homogenized in 20 ml. of 0.125 M Na-EDTA buffer, pH 8.3, employing polytron homogenizer. The homogenate is then centrifuged at 1,200×g. for 10 minutes and the resulting supernatant filtered through two layers of cheese cloth. The filtrate is then centrifuged at 10,000×g. for 20 minutes. The supernatant is then centrifuged at 105,000×g. for 1 hour. The precipitate is dissolved once with Na-EDTA buffer and recentrifuged at 105,000×g. for 1 hour. The final microsomal fraction is then dissolved in 1.0 ml. of Na-EDTA buffer and stored in a freezer.
# The incubation buffer medium (1.0 ml. total) consists of 500 μg of lyophilized bovine serum albumin, 5×10^-4 M hydroquinone, 1.0×10^-2 M reduced glutathione, 3×10^-6 M^14 C arachidonic acid (AA) in 0.02 ml. of methanol, 0.01 ml. of the tested drugs in methanol at the desired concentrations, and the microsomal fraction (1.2 mg. protein/ml. incubation medium). This medium is incubated for one hour at 37° C. At the end of this period, enzyme reaction is terminated by the addition of 0.25 ml. of 1 N HCl. 15 μg of non-radioactive Prostaglandin E2 (PGE2), Prostaglandin F2α (PGF2α) and AA (5 μg each) in an ethanol solution is then added to all of the acidified reaction mixtures. The reaction products are extracted with ethylacetate (2×2 ml.) and the total organic solution of 4 ml. is washed with 1.0 ml. of triple distilled water. 3.0 ml. of the total ethylacetate solution is removed and evaporated to dryness under nitrogen gas. The residue is then re-dissolvedin 50 μl. of 100% ethanol and spotted on silica gel GF plates and subjected to chromatograph. Only the organic phase of the ethyl acetate:water:iso-octane:acetic acid system (11:10:5:2) is used as solvent in the chromatography system.
# After exposure to iodine vapor, the PGE2 and AA spots are scraped from the TLC plate, put into separate vials, and mixed with 10.0 ml. of Instagel scintillation cocktail for counting in a Nuclear-Chicago Mark II liquid scintillation counter.
# Results are expressed as counts per minute (cpm), evidencing in vitro PGE2 biosynthesis.
# [2] = system: rat stomach (gastric ulcers, gastric swelling); assay type: in vivo, rat (male Charles River, Sprague-Dawley); conditions: for Number of Animals With Gastric Swelling / Number of Animals With Gastric Ulcers: 4 hours after dosing
# Experimental: The rats are divided into groups 6-10 and dosed by the oral route with test compound, on a mg/kg. body weight basis, or vehicle control, 0.5% carboxymethylcellulose, in a volume of 3 ml. per rat. Four hours after dosing, the rats are decapitated and exsanguinated. Stomachs are removed and examined for gastric swelling and then opened and washed for visual inspection of gastric ulcers. Only one lesion or gastric bleeding is necessary for a positive response. Data is reported quantally.
# [3] = Adrenalectomized Rats, oral 100 mg/kg
# [4] = Adrenalectomized Rats, oral 200 mg/kg
smiles,measurement,setting,value
O=C(O)C=C1c2ccccc2C=Cc2ccccc21 [DCHA],% Inhibition,[1]; [3],37%
same,Edema (ml) ± S.E.,[1]; [3],0.57 ± .02 mL
same,% Inhibition,[1]; [4],41%
same,Edema (ml) ± S.E.,[1]; [4],0.81 ± .04 mL
same,% Inhibition,"[1]; Normal Rats, oral 100 mg/kg",38%
same,Mean Edema (ml) ± S.E.,"[1]; Normal Rats, oral 100 mg/kg",0.58 ± .04 mL
same,% Inhibition,"[1]; Normal Rats, oral 200 mg/kg",44%
same,Mean Edema (ml) ± S.E.,"[1]; Normal Rats, oral 200 mg/kg",0.53 ± .05 mL
same,action by stimulating naturally occurring steroids,[1]; in words,independent of the adrenal glands
same,anti-inflammatory activity in adrenalectomized rats compared with normal control animals,[1]; oral 100 and 200 mg/kg,not different from that observed in normal control animals
same,"cpm (× 1000), in vitro PGE2 biosynthesis",prostaglandin synthetase; 30 μg/ml,6.6 ± .3 cpm (× 1000)
same,"cpm (× 1000), in vitro PGE2 biosynthesis",prostaglandin synthetase; 50 μg/ml,5.2 ± .4 cpm (× 1000)
same,"cpm (× 1000), in vitro PGE2 biosynthesis",prostaglandin synthetase; 60 μg/ml,5.1 ± .2 cpm (× 1000)
same,"cpm (× 1000), in vitro PGE2 biosynthesis",prostaglandin synthetase; 100 μg/ml,3.0 ± .1 cpm (× 1000)
same,"cpm (× 1000), in vitro PGE2 biosynthesis",prostaglandin synthetase; 120 μg/ml,3.3 ± .4 cpm (× 1000)
same,"cpm (× 1000), in vitro PGE2 biosynthesis",prostaglandin synthetase; 150 μg/ml,2.1 ± .3 cpm (× 1000)
same,"cpm (× 1000), in vitro PGE2 biosynthesis",prostaglandin synthetase; 200 μg/ml,2.0 ± .1 cpm (× 1000)
same,IC50,"prostaglandin synthetase; calculated from Table 6, read-out: 50% inhibitory concentration (converted)",259 µM
same,inhibitory effect on prostaglandin synthetase activity,prostaglandin synthetase; in words,does not have an appreciable inhibitory effect on prostaglandin synthetase activity
same,gastric irritation,[2]; in words,neither causing gastric irritation nor affecting gastric secretions
same,effect on gastric secretion,"[2]; in words, high doses",no effect on gastric secretion
same,gastric ulceration,"[2]; rat, doses up to 480 mg/kg, in words",no gastric ulceration
same,Number of Animals With Gastric Swelling,"[2]; rat, oral 60 mg/kg",0/6
same,Number of Animals With Gastric Ulcers,"[2]; rat, oral 60 mg/kg",0/6
same,Number of Animals With Gastric Swelling,"[2]; rat, oral 120 mg/kg",0/6
same,Number of Animals With Gastric Ulcers,"[2]; rat, oral 120 mg/kg",0/6
same,Number of Animals With Gastric Swelling,"[2]; rat, oral 240 mg/kg",0/6
same,Number of Animals With Gastric Ulcers,"[2]; rat, oral 240 mg/kg",0/6
same,Number of Animals With Gastric Swelling,"[2]; rat, oral 480 mg/kg",0/6
same,Number of Animals With Gastric Ulcers,"[2]; rat, oral 480 mg/kg",0/6
